# Measurements as given in ChEMBL document CHEMBL5724796, “Tm Shift (DSF) assay results for EUbOPEN Chemogenomics Library” (2024).
# Residues, ends and D or L forms follow the SMILES beside them.
# Columns and labels:
# Peregrin (Homo sapiens) = molecular target: T1, Peregrin (Homo sapiens) (UniProt P55201); conditions: Compound concentration 20.0 uM
# T1 sequence (whole entry): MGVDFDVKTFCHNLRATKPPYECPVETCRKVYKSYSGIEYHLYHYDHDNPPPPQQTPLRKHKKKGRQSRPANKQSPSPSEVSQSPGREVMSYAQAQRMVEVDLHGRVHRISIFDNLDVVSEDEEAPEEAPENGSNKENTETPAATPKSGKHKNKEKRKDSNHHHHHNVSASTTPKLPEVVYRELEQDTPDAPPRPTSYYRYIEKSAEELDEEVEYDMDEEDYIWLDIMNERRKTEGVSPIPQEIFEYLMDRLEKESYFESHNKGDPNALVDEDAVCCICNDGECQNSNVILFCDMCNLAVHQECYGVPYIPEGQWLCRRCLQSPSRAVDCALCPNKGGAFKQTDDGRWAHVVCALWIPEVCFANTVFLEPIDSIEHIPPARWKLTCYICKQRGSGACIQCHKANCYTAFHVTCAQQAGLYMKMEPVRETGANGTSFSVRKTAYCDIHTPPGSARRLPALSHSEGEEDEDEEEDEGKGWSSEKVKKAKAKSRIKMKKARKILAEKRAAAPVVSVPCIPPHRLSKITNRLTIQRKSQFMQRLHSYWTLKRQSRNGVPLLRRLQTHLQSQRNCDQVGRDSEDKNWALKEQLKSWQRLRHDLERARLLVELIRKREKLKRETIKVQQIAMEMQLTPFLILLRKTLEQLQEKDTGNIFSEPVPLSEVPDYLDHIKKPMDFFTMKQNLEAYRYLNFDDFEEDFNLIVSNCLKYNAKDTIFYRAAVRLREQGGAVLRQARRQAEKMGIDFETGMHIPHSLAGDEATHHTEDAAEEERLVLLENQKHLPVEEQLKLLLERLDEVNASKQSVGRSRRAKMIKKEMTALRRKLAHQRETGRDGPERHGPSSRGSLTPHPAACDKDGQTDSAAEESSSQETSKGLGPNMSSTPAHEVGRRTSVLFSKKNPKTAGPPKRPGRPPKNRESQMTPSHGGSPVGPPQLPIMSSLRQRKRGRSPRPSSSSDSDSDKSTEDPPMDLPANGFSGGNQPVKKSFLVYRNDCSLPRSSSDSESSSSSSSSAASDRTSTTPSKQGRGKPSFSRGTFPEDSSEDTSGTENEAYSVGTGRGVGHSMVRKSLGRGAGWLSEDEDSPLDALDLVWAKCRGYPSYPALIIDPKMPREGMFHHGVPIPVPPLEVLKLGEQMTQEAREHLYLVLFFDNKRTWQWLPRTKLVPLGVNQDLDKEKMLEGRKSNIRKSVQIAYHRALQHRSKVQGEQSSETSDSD
# [1] = molecular target: Fibroblast growth factor receptor 2 (Homo sapiens) (UniProt P21802); conditions: Compound concentration 20.0 uM
# Chain of Fibroblast growth factor receptor 2 (Homo sapiens) (P21802 22-821 limits assumed): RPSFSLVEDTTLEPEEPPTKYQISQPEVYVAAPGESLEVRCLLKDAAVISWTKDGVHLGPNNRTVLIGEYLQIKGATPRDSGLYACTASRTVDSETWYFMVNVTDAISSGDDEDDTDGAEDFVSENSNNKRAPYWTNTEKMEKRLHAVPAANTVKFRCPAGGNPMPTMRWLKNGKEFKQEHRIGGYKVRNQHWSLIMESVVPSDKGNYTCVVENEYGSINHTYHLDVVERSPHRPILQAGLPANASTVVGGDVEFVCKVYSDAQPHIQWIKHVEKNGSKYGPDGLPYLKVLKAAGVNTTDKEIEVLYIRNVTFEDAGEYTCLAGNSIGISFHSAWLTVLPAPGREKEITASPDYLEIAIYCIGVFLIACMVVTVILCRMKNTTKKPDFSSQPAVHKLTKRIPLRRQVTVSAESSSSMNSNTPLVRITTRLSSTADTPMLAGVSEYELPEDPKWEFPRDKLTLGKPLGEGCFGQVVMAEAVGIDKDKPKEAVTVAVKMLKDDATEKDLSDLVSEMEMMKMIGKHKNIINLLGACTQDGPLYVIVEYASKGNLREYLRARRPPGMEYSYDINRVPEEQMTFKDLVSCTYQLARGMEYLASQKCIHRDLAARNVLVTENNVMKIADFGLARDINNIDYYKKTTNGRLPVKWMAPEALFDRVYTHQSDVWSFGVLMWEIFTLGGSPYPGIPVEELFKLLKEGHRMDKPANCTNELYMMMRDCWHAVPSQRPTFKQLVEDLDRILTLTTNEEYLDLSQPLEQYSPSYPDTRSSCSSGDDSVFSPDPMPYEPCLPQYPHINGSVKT
# Description: Thermal Shift Assay. Domain: start/stop: T457-E768
SMILES,ΔTm (Peregrin (Homo sapiens)),ΔTm [1]
O=C(N1CCCCC1c1ccccc1)n1cc(-c2ccc(-c3cccc(CO)c3)cc2)nn1 (centres undefined),-1.91 °C,-4.93 °C
CCn1ncc2c(NC3CCOCC3)c(-c3nnc(Cc4sc(C)nc4C)o3)cnc21,0.65 °C,0.47 °C
CCCN(CCC)c1ccc(C=O)cc1Br,-0.41 °C,0.23 °C
CC(=O)N[C@@H](CC(C)C)C(=O)N[C@@H](CCC(=O)O)C(=O)N[C@H](C(=O)N[C@H](C=O)CC(=O)O)C(C)C (Ac-LEVD-aldehyde),-1.25 °C,0.88 °C
CNC(=O)Cn1cc(-c2ccc3c(c2)[C@H](F)C[C@]32NC(=O)N(CC(=O)N(Cc3ccc(F)cc3)[C@@H](C)C(F)(F)F)C2=O)cn1,-0.07 °C,-0.18 °C
CCC[C@H]1CNCc2c1[nH]c(=O)c(C#N)c2N1CCC2(CC1)CC2,-0.83 °C,0.92 °C
CCc1c(C#N)c(S[C@@H](C(N)=O)c2ccccc2)nc(N(C)C)c1C#N,2.36 °C,-0.11 °C
Cn1ncc2c(-c3c(-c4ccc(F)cn4)nn4c3COC(C)(C)C4)ccnc21,-1.06 °C,1.01 °C
CCOC(=O)c1ccc(-c2ccc(OC(=O)N(C)Cc3cccc(-c4ccncc4)c3)cc2)cc1,3.12 °C,-0.28 °C
C[C@H]1CCCN1Cc1nc2cc(NC(=O)c3ccc4c(cnn4C)c3)ccc2[nH]1,-1.47 °C,0.51 °C
Fc1ccc(C(OCCN2CCN(CCCc3ccccc3)CC2)c2ccc(F)cc2)cc1,0.78 °C,-0.47 °C
O=C1C(P(=O)(O)O)CCCN1O (centres undefined),-1.07 °C,0.23 °C
OC[C@H]1O[C@@H](c2ccc(Cl)c(Cc3ccc(OCCOC4CC4)cc3)c2)[C@H](O)[C@@H](O)[C@@H]1O,0.43 °C,-0.3 °C
C[C@H](Nc1nc2c(cnn2C2CCCC2)c(=O)[nH]1)c1ccc(Cl)cc1,1.99 °C,0.2 °C
CCCN1CCN(c2ccc(C(=O)NC3(C(=O)NCC#N)CCCCC3)cc2)CC1,-1.09 °C,0.76 °C
O=C(CCCCCCNC(=O)c1cnc(N(c2ccccc2)c2ccccc2Cl)nc1)NO,-1.49 °C,0.65 °C
CCNC(=O)NCCSC[C@H]1O[C@@H](n2cnc3c(N)ncnc32)[C@H](O)[C@@H]1O,-1.31 °C,0.95 °C
CC(=O)N1CCc2c(c(N3CCCc4cc(-c5cnn(C)c5)c(C(F)F)cc43)nn2C2CCOCC2)C1,-1.44 °C,0.45 °C
CSc1cccc(Nc2ncc3cc(-c4c(Cl)cccc4Cl)c(=O)n(C)c3n2)c1,-0.8 °C,-0.92 °C
O=C(CCl)Nc1ccc(S(=O)(=O)c2ccc(NC(=O)CCl)cc2)cc1,0.78 °C,0.88 °C
O=C(c1cc(Cc2n[nH]c(=O)c3ccccc23)ccc1F)N1CC(CNC2CC2)C1,-0.32 °C,-0.3 °C

SMILES,ΔTm (Peregrin (Homo sapiens)),ΔTm [1]
CC(=O)Nc1ccc(C(=O)Nc2ccc(F)cc2N)cc1,1.03 °C,0.76 °C
Cc1nc(F)ccc1-c1cc(Cn2ccn(C)c2=N)cc(C(=O)NCc2ccc(Cl)c(Cl)c2)c1,-1.3 °C,0.16 °C
O=[N+]([O-])c1ccc(CSc2ncnc3c2ncn3[C@@H]2O[C@H](CO)[C@@H](O)[C@H]2O)cc1,1.12 °C,0.22 °C
CNc1nccc(CN(CC2CCNCC2)S(=O)(=O)c2ccc(S(=O)(=O)N(Cc3ccc(Cl)cc3)C3CCCC3)cc2)n1,1.3 °C,-0.24 °C
Cc1ccc2c(c1)nc(/C=C/c1cccc3cccnc13)n2-c1cccc(OCCCN2CCN(C)CC2)c1,0.16 °C,0.24 °C
Cc1ccsc1C(=CCCN1CCC[C@@H](C(=O)O)C1)c1sccc1C,0.44 °C,0.37 °C
Cc1nccn1CC1CCc2c(c3ccccc3n2C)C1=O (centres undefined),0.91 °C,-0.16 °C
NC(=O)[C@H]1CCCCc2c1[nH]c1ccc(Cl)cc21,0.13 °C,1.09 °C
C[C@]12CC[C@@H]3c4ccc(O)cc4C[C@@H](CCCCCCCCC[S+]([O-])CCCC(F)(F)C(F)(F)F)[C@H]3[C@@H]1CC[C@@H]2O (some centres undefined),0 °C,-3.24 °C
Oc1ccc(-c2c(-c3ccccc3)nn3c(C(F)(F)F)cc(C(F)(F)F)nc23)cc1,-1.38 °C,1.15 °C
N[C@@H](CC(=O)Nc1ccc(Oc2cc(F)c(F)cc2Br)cc1)C(=O)O,0.59 °C,-0.01 °C
CN(Cc1cccc(-c2ccncc2)c1)C(=O)Oc1ccc(-c2ccc(C(N)=O)cc2)cc1,2.09 °C,0.69 °C
N=C(N)SCc1ccc(CN2C(=O)C(=O)c3cc(Br)cc(Br)c32)cc1,-6.38 °C,-6.45 °C
CCN(c1cc(C#CCN2CCOCC2)cc(C(=O)NCc2c(C)cc(C)[nH]c2=O)c1C)[C@H]1CC[C@H](N(C)CCOC)CC1,-1.63 °C,0.42 °C
NCCCOc1cc2ccccc2cc1C(=O)NCCOc1cc2ccccc2cc1C(=O)Nc1ccc(Cl)cc1O,0 °C,-1.59 °C
C[C@H](NC(=O)[C@H](Cc1ccccc1)NC(=O)OCc1ccccc1)C(=O)CF,-1.31 °C,0.14 °C
Nc1ccccc1NC(=O)c1ccc(CNc2nccc(-c3cccnc3)n2)cc1,-0.72 °C,1.02 °C
COc1cc2c(cc1-c1c(C)noc1C)[nH]c1nc(C)nc(-c3ccnc4ccccc34)c12,1.04 °C,-1.02 °C
CCCc1nc(C)c2c(=O)nc(-c3cc(S(=O)(=O)N4CCN(CC)CC4)ccc3OCC)[nH]n12,1.02 °C,0.41 °C
CS(=O)(=O)Nc1ccc(-c2coc3cc(OCc4cccc(C(=O)O)c4)ccc3c2=O)cc1,1.08 °C,-0.06 °C
COc1cc(C(C)C)c2c(c1)S(=O)(=O)N(COc1cc(=O)n3cccc(OCCN4CCCCC4)c3n1)C2=O,-1.13 °C,1.04 °C

SMILES,ΔTm (Peregrin (Homo sapiens)),ΔTm [1]
CCCCCCCCCCCCCCCCNNC(=O)c1cccs1,-0.84 °C,0.53 °C
CN1CCN2c3c(cccc31)[C@@H]1CN(CCCC(=O)c3ccc(F)cc3)CC[C@@H]12,-0.19 °C,-0.37 °C
N#Cc1ccc([C@H]2CCCC[C@H]2O)cc1C(F)(F)F,-0.66 °C,-0.09 °C
O=C(Nc1ccc2[nH]nc(-c3ccncc3)c2c1)[C@@H]1CCN(CC(=O)N2CCN(c3ccc(-c4ncccn4)cc3)CC2)C1,-0.34 °C,0.95 °C
COc1ccc(N2CCN(C(=O)c3cc4c(s3)-c3ccccc3S(=O)(=O)C4)CC2)cc1,0 °C,0.24 °C
CC(C)Nc1cc(-c2c[nH]c(C(=O)N[C@H](CO)c3cccc(Cl)c3)c2)c(Cl)cn1,0.61 °C,0.33 °C
CC(C)c1cc(C(=O)N2CC[C@@H](NC(=O)C3CC3)C2)[nH]n1,-0.47 °C,-0.51 °C
COc1nc(Nc2cc(S(C)(=O)=O)ccc2N[C@@H](c2cccc3c2OC(F)(F)O3)c2ncccc2Cl)nc(N2CCNCC2)n1,0 °C,-8.88 °C
CC(=O)Nc1ccc(-c2cc(-c3ccccc3)nc3cc(C(=O)NCCCn4ccnc4)nn23)cc1,-0.4 °C,0.21 °C
CCOCC1(COCC)CCC(c2n[nH]cc2CN(C)CCNC)CC1,-0.75 °C,-0.35 °C
CNC[C@@H](O)COc1ccc(Cl)c(-c2nc(-c3c(C)noc3C)c(C)c(N3CC4(CCN(C(=O)OC)CC4)C3)n2)c1,-1.65 °C,0.49 °C
C=CCc1cccc(CNc2nc3ccccc3n2CCC)c1O,4.18 °C,0.14 °C
CC[C@H](C)[C@H](NC(=O)[C@H](CCC(=O)O)NC(=O)[C@@H](NC(C)=O)C(C)C)C(=O)N[C@H](C=O)CC(=O)O (Ac-VEID-aldehyde),-1.43 °C,-0.3 °C
O=C(NCCc1cc(C(=O)NO)no1)c1ccc(Cl)c(Cl)c1,-1.25 °C,0.8 °C
C[C@@H](Oc1ccc(S(C)(=O)=O)cc1C(=O)N1C[C@@H]2C[C@]2(c2cc(C(F)(F)F)on2)C1)C(F)(F)F,0.16 °C,-0.81 °C
O=c1[nH][nH]c(=O)c2cc(OCc3ccsc3)ccc12,3.18 °C,0.19 °C
O=C(NO)c1ccc(CN2CCCc3cc(Cl)ccc32)cc1,-1.37 °C,0.45 °C
N[C@@H](CCCCNC(=O)OCc1ccc([N+](=O)[O-])cc1)C(=O)N1CCCC1,0.82 °C,-0.09 °C
Cn1ncc(-c2nn(C)c3ncnc(N4CCC4)c23)c1-c1ccc(C(F)(F)F)cc1,3.7 °C,0.04 °C
COc1ccc(CC[C@H]2CCC[C@@H](CCc3ccc(OC)cc3)N2C[C@@H](O)CO)cc1,0.69 °C,-0.53 °C
